Reference: ChEMBL document CHEMBL5728179, “Triazolopyridines” (2020)

assay: Cellular gamma-Secretase Assay: Human neuroglioma H4 cells overexpressing human APP695 with the Swedish double mutation (K595N/M596L) were plated at 30,000 cells/well/100 μl in 96-well plates in IMDM media containing 10% FCS, […] Hygromycin B and incubated at 37° C., 5% CO2.3-4 hr post plating, compounds are a diluted in media and 50 μl is added as 1.5-fold concentrate to achieve the final concentration. Compound incubation is performed for 24 hr. Final doses typically range from 4 μM down to 0.0013 μM in half-log steps resulting in a eight point dose response curve.Appropriate controls using vehicle only and reference compound were applied to this assay. The final concentration of Me2SO was 0.4%.After incubation at 37° C., 5% CO2, the supernatant was subjected to quantification of secreted Aβ42 by the means of an AlphaLisa assay kit (Human Amyloid beta 1-42 Kit: Cat #AL203C, Perkin Elmer). 20 μl of the cell culture supernatant was transferred to an assay plate. Then 10 μl of a mixture of the AlphaLisa coupled capture antibody and the biotinylated detection antibody was added and incubated for 3 hours at room temperature while softly shaking the assay plate. After a further addition of 20 μl of the Donor beads the assay plate was incubated for 30 min at room temperature and constant shaking without exposure to direct light. The assay plate was then read on a Paradigm AlphaLisa Reader using the build-in program with excitation at 680 nm and emission at 570 nm.The measured signals were then used to calculate IC50 values for inhibition of Aβ42 secretion by nonlinear regression fit analysis using XLfit 5.3 software (IDBS).

Row | SMILES | EC50 [nM]
1 | Cc1cc(N2C[C@H]3CC[C@@H](C2)[C@@H]3Nc2nc3c(C)ccc(OCC(F)(F)F)n3n2)ncn1 | 29.9
2 | COc1cc(Nc2nc3c(C(C)C)ccc(OCC(F)(F)F)n3n2)ccc1-c1ccnc(C)c1 | 21.2
3 | FC(F)(F)COc1cccc2nc(N[C@@H]3[C@@H]4CC[C@H]3CN(c3ccnc(C(F)(F)F)c3)C4)nn12 | 43.6
4 | CC(C)c1ccc(O[C@@H](C)C(F)(F)F)n2nc(N[C@@H]3[C@@H]4CC[C@H]3CN(c3cnnc(Cl)c3)C4)nc12 | 13.2
5 | CC(C)c1ccc(OCC(F)(F)F)n2nc(N[C@@H]3[C@@H]4CC[C@H]3CN(c3cnnc(Cl)c3)C4)nc12 | 23.2
6 | COc1cc(Nc2nc3c(C(C)(C)O)ccc(O[C@@H](C)C(F)(F)F)n3n2)ccc1-n1cnc(C)n1 | 39
7 | COc1cc(Nc2nc3c(C(F)(F)F)ccc(O[C@@H](C)C(F)(F)F)n3n2)ccc1-n1cnc(C)n1 | 40.5
8 | Cc1cc(N2C[C@H]3CC[C@@H](C2)[C@@H]3Nc2nc3cccc(OCC(F)(F)F)n3n2)sn1 | 7
9 | COc1cc(Nc2nc3c(C(C)C)ccc(OCC(F)(F)F)n3n2)ccc1-n1cnc(C)n1 | 26.6
10 | Cc1cc(N2C[C@H]3CC[C@@H](C2)[C@@H]3Nc2nc3c(C(C)(C)O)ccc(OCC(F)(F)F)n3n2)ncn1 | 43.8
11 | COc1cc(Nc2nc3c(C(C)(C)O)ccc(O[C@@H](C)C(F)(F)F)n3n2)ccc1-n1cnc(Cl)n1 | 42.2
12 | Cc1ccc(OCC(F)(F)F)n2nc(N[C@@H]3[C@@H]4CC[C@H]3CN(c3ccnc(C(F)(F)F)c3)C4)nc12 | 20.6
13 | Cc1cc(N2C[C@H]3CC[C@@H](C2)[C@@H]3Nc2nc3c(C(C)(C)O)ccc(O[C@@H](C)C(F)(F)F)n3n2)ncn1 | 34.6
14 | COc1cc(N2C[C@H]3CC[C@@H](C2)C3Nc2nc3c(C(C)C)ccc(O[C@@H](C)C(F)(F)F)n3n2)ccn1 (some centres not stated) | 19.6
15 | Cc1ncn(-c2ccc(Nc3nc4c(C(C)(C)O)ccc(OCC(F)(F)F)n4n3)cc2OC(F)F)n1 | 45.5
16 | C[C@H](Oc1ccc(C(C)(C)O)c2nc(N[C@@H]3[C@@H]4CC[C@H]3CN(c3cnnc(Cl)c3)C4)nn12)C(F)(F)F | 40

Row | SMILES | EC50 [nM]
17 | COc1cc(N2C[C@H]3CC[C@@H](C2)[C@@H]3Nc2nc3c(C)ccc(OCC(F)(F)F)n3n2)ccn1 | 15.6
18 | COc1cc(N2C[C@H]3CC[C@@H](C2)[C@@H]3Nc2nc3c(C(C)C)ccc(OCC(F)(F)F)n3n2)ccn1 | 25.4
19 | COc1cc(N2C[C@H]3CC[C@@H](C2)[C@@H]3Nc2nc3c(C(C)C)ccc(OCC(F)(F)F)n3n2)cnn1 | 21.2
20 | Cc1ncn(-c2ccc(Nc3nc4c(C(C)C)ccc(OCC(F)(F)F)n4n3)cc2OC(F)F)n1 | 34.2
21 | Cc1noc(N2C[C@H]3CC[C@@H](C2)[C@@H]3Nc2nc3c(C(C)C)ccc(O[C@@H](C)C(F)(F)F)n3n2)n1 | 49
22 | Cc1ccc(OCC(F)(F)F)n2nc(N[C@@H]3[C@@H]4CC[C@H]3CN(c3ccnc(Cl)c3)C4)nc12 | 9.2
23 | Cc1nnc(N2C[C@H]3CC[C@@H](C2)[C@@H]3Nc2nc3c(C(C)C)ccc(O[C@@H](C)C(F)(F)F)n3n2)o1 | 43.2
24 | COc1cc(N2C[C@H]3CC[C@@H](C2)[C@@H]3Nc2nc3c(C(C)C)ccc(O[C@@H](C)C(F)(F)F)n3n2)cnn1 | 14.2
25 | Cc1cc(N2C[C@H]3CC[C@@H](C2)[C@@H]3Nc2nc3c(C(C)C)ccc(OCC(F)(F)F)n3n2)ncn1 | 38.5
26 | Cc1cn(-c2ccc(Nc3nc4c(C(C)C)ccc(OCC(F)(F)F)n4n3)cc2C#N)cn1 | 49.4
27 | Cc1noc(N2C[C@H]3CC[C@@H](C2)[C@@H]3Nc2nc3c(C(C)C)ccc(OCC(F)(F)F)n3n2)n1 | 37.4
28 | Cc1ccc(OCC(F)(F)F)n2nc(N[C@@H]3[C@@H]4CC[C@H]3CN(c3cnnc(Cl)c3)C4)nc12 | 46.5
29 | Cc1cn(-c2ccc(Nc3nc4c(C(C)(C)O)ccc(O[C@@H](C)C(F)(F)F)n4n3)cc2C#N)cn1 | 37.3
30 | CC(C)c1ccc(OCC(F)(F)F)n2nc(N[C@@H]3[C@@H]4CC[C@H]3CN(c3ccnc(C(F)(F)F)c3)C4)nc12 | 33.2
31 | CC(C)c1ccc(OCC(F)(F)F)n2nc(N[C@@H]3[C@@H]4CC[C@H]3CN(c3ccnc(Cl)c3)C4)nc12 | 11.7
32 | CC(C)(O)c1ccc(OCC(F)(F)F)n2nc(N[C@@H]3[C@@H]4CC[C@H]3CN(c3ccnc(C(F)(F)F)c3)C4)nc12 | 44.8
